The values below come from ChEMBL document CHEMBL4002618, “Anticomplement triterpenoids from the roots of Ilex asprella” (2017).

Molecules are shown by their SMILES. The source made the active and inactive calls. No cut-off for these calls is given here. Bounds are passed on as bounds.

Assay [1] relates to Erythrocyte. The experiment in a line: Anticomplement activity in New Zealand White rabbit erythrocytes assessed as concentration required for 50% hemolytic inhibition by alternative pathway preincubated for 10 mins with normal human serum followed by erythrocyte addition measured after 30 mins by spectrophotometer. Type of assay: functional.
In assay [2] the test system is Erythrocyte. The experiment in a line: Anticomplement activity in sheep erythrocytes assessed as concentration required for 50% hemolytic inhibition by classic pathway preincubated for 10 mins with guinea pig serum followed by erythrocyte addition measured after 30 mins by spectrophotometer. Type of assay: functional.
The subject of assay [3] is Erythrocyte. Kind of assay: Anticomplement activity in sheep erythrocytes assessed as inhibition of hemolysis by classical pathway by measuring hemolysis after 30 mins of compound treatment in normal human serum with C9-depleted sera relative to control. Type of assay: functional, Ovis aries. Also on record: scale not given: the % may be the effect or the level left.
Assay [4] relates to Erythrocyte. Kind of assay: Anticomplement activity in sheep erythrocytes assessed as inhibition of hemolysis by classical pathway by measuring hemolysis after 30 mins of compound treatment in normal human serum with C3-depleted sera relative to control. Type of assay: functional, Ovis aries. More on the design: scale not given: the % may be the effect or the level left.
The subject of assay [5] is Erythrocyte. Kind of assay: Anticomplement activity in sheep erythrocytes assessed as inhibition of hemolysis by classical pathway after 30 mins of compound treatment in normal human serum with C5-depleted sera. Type of assay: functional, cell-based. Conditions: Ovis aries.
Assay [6] has as its system Erythrocyte. The experiment in a line: Anticomplement activity in sheep erythrocytes assessed as inhibition of hemolysis by classical pathway after 30 mins of compound treatment in normal human serum with C2-depleted sera. Type of assay: functional, cell-based. Conditions: Ovis aries.
Assay [7] concerns Erythrocyte. The experiment in a line: Anticomplement activity in sheep erythrocytes assessed as inhibition of hemolysis by classical pathway after 30 mins of compound treatment in normal human serum with C1q-depleted sera. Type of assay: functional, cell-based. Conditions: Ovis aries.
Assay [8] deals with Erythrocyte. Kind of assay: Anticomplement activity in sheep erythrocytes assessed as inhibition of hemolysis by classical pathway by measuring hemolysis after 30 mins of compound treatment in normal human serum with C4-depleted sera relative to control. Type of assay: functional, Ovis aries. More on the design: scale not given: the % may be the effect or the level left.

As to `CC1(C)CC[C@]2(C(=O)O)CC[C@]3(C)C(=CC[C@@H]4[C@@]5(C)CC[C@H](O[C@@H]6OC[C@H](O)[C@H](O)[C@H]6O)C(C)(C)[C@@H]5CC[C@]43C)[C@@H]2[C@@H]1O`, the outcome in the assay on Erythrocyte [1] (Oryctolagus cuniculus) and in the assay on Erythrocyte [2] (Ovis aries) was inactive.

Regarding `C[C@@H]1CC[C@]2(C(=O)O)CC[C@]3(C)C(=CC[C@@H]4[C@@]5(C)CC[C@H](O)C(C)(C)[C@@H]5CC[C@]43C)[C@@H]2[C@]1(C)O` [POMOLIC ACID], the Activity worked out at 0.157 mg/mL in the assay on Erythrocyte [1] and 0.101 mg/mL in the assay with Erythrocyte [2].

Turning to `C=C1[C@@H](O)[C@H](O)C[C@]2(C)[C@H]3CC=C4[C@@H]5[C@@H](C)[C@H](C)CC[C@]5(C(=O)O)CC[C@@]4(C)[C@]3(C)CC[C@@H]12` [ILEKUDINOL B], the values for the Activity in the assay with Erythrocyte [1] and in the assay with Erythrocyte [2] were 0.586 mg/mL and 0.123 mg/mL, respectively.

In the case of `COC(=O)[C@]12CCC(C)(C)C[C@H]1C1=CC[C@@H]3[C@@]4(C)CC[C@H](O)C(C)(C)[C@@H]4CC[C@@]3(C)[C@]1(COC(=O)/C=C/c1ccc(O)c(O)c1)CC2`, the Activity was below 18.3% in the assay with Erythrocyte [3]; below 18.3% with Erythrocyte [4]; 0.089 mg/mL in the assay on Erythrocyte [1]; 0.063 mg/mL in the assay on Erythrocyte [2]; below 18.3% in the assay with Erythrocyte [8]. For the same molecule, the result in the assay with Erythrocyte [5], in the assay with Erythrocyte [6] and with Erythrocyte [7] was inactive.

Take `CC(=O)O[C@H]1CC[C@]2(C)[C@H]3CC=C4[C@@H]5[C@@H](C)[C@H](C)CC[C@]5(CO)CC[C@@]4(C)[C@]3(C)CC[C@H]2C1(C)C`: in the assay on Erythrocyte [1] (Oryctolagus cuniculus), the result was inactive. Besides, the Activity in the assay with Erythrocyte [2] came out at 0.46 mg/mL.

As for `C[C@@H]1CC[C@]2(C(=O)O[C@@H]3O[C@H](CO)[C@@H](O)[C@H](O)[C@H]3O)CC[C@]3(C)C(=CC[C@@H]4[C@@]5(C)CC[C@H](O[C@@H]6OC[C@@H](O)[C@H](O)[C@H]6O)C(C)(C)[C@@H]5CC[C@]43C)[C@@H]2[C@]1(C)O`, the outcome in the assay with Erythrocyte [1] (Oryctolagus cuniculus) and with Erythrocyte [2] (Ovis aries) was inactive.

`CC(=O)O[C@H]1[C@H](O[C@H]2CC[C@]3(C)[C@H]4CC=C5[C@H]6[C@](C(=O)O[C@@H]7O[C@H](CO)[C@@H](O)[C@H](O)[C@H]7O)(CC[C@@H](C)[C@@]6(C)O)CC[C@@]5(C)[C@]4(C)CC[C@H]3C2(C)C)OC[C@H](O)[C@@H]1O`: the result in the assay with Erythrocyte [1] (Oryctolagus cuniculus) and in the assay on Erythrocyte [2] (Ovis aries) was inactive.

Take `C[C@@H]1CC[C@]2(C(=O)O)CC[C@]3(C)C(=CC[C@@H]4[C@@]5(C)CC[C@H](O[C@@H]6OC[C@H](O)[C@H](O)[C@H]6O)C(C)(C)[C@@H]5CC[C@]43C)[C@@H]2[C@]1(C)O`: the outcome with Erythrocyte [1] (Oryctolagus cuniculus) and in the assay on Erythrocyte [2] (Ovis aries) was inactive.

On to `C[C@H]1[C@H](C)CC[C@]2(C(=O)O)CC[C@]3(C)C(=CC[C@@H]4[C@@]5(C)C[C@H](O)[C@H](O)[C@@](C)(CO)[C@@H]5CC[C@]43C)[C@H]12`, for which the results for the Activity in the assay on Erythrocyte [1] and with Erythrocyte [2] were 0.212 mg/mL and 0.197 mg/mL, respectively.

Turning to `C=C1[C@@H](O)[C@H](O)C[C@]2(C)[C@H]3[C@@H]4O[C@@H]4[C@]45OC(=O)[C@@]6(CC[C@@H](C)[C@H](C)[C@H]64)CC[C@@]5(C)[C@]3(C)CC[C@@H]12` [ULMOIDOL], the values for the Activity in the assay on Erythrocyte [1] and in the assay with Erythrocyte [2] were 0.794 mg/mL and 0.429 mg/mL, respectively.

Take `C=C1[C@@H](O)[C@H](O)C[C@]2(C)[C@H]3[C@@H]4O[C@@H]4[C@]45OC(=O)[C@@]6(CCC(C)(C)C[C@H]64)CC[C@@]5(C)[C@]3(C)CC[C@@H]12`: the Activity stood at 0.781 mg/mL with Erythrocyte [1] and 0.357 mg/mL in the assay with Erythrocyte [2].

Regarding `C[C@@H]1CC[C@]2(C(=O)O[C@@H]3O[C@H](CO)[C@@H](O)[C@H](O)[C@H]3O)CC[C@]3(C)C(=CC[C@@H]4[C@@]5(C)CC[C@H](O)C(C)(C)[C@@H]5CC[C@]43C)[C@@H]2[C@]1(C)O`, the outcome in the assay with Erythrocyte [1] (Oryctolagus cuniculus) and with Erythrocyte [2] (Ovis aries) was inactive.

Regarding `COC(=O)[C@H]1O[C@@H](O[C@H]2CC[C@@]3(C)[C@@H](CC[C@]4(C)[C@@H]3CC=C3[C@H]5[C@](C(=O)O)(CC[C@@H](C)[C@@]5(C)O)CC[C@]34C)[C@]2(C)CO)[C@H](O)[C@@H](O)[C@@H]1O`, the result in the assay with Erythrocyte [1] (Oryctolagus cuniculus) and in the assay with Erythrocyte [2] (Ovis aries) was inactive.

Turning to `C[C@H]1[C@H](C)CC[C@@]23CC[C@]4(C)[C@@](OC2=O)([C@H]13)[C@H]1O[C@H]1[C@@H]1[C@@]2(C)CC(=O)[C@H](O)[C@@H](C)[C@@H]2[C@H](O)C[C@]14C`, the Activity in the assay on Erythrocyte [1] was determined as 0.734 mg/mL; with Erythrocyte [2] it was 0.592 mg/mL.

In the case of `C[C@H]1[C@H](C)CC[C@]2(C(=O)O)CC[C@]3(C)C(=CC[C@@H]4[C@@]5(C)CC[C@H](O)[C@@](C)(CO)[C@@H]5CC[C@]43C)[C@H]12`, the values for the Activity in the assay with Erythrocyte [1] and in the assay on Erythrocyte [2] were 0.678 mg/mL and 0.161 mg/mL, respectively.

As for `CC1=C2[C@H](O)C[C@]3(C)[C@H]([C@@H]4O[C@@H]4[C@]45OC(=O)[C@@]6(CC[C@@H](C)[C@H](C)[C@H]64)CC[C@]53C)[C@@]2(C)C=C(O)C1=O`, the Activity amounted to 0.774 mg/mL with Erythrocyte [1] and 0.505 mg/mL in the assay with Erythrocyte [2].

On to `COC(=O)[C@H]1O[C@@H](O[C@H]2CC[C@]3(C)[C@H]4CC=C5[C@H]6[C@](C(=O)O)(CC[C@@H](C)[C@@]6(C)O)CC[C@@]5(C)[C@]4(C)CC[C@H]3C2(C)C)[C@H](O)[C@@H](O)[C@@H]1O`, for which the result with Erythrocyte [1] (Oryctolagus cuniculus) and with Erythrocyte [2] (Ovis aries) was inactive.

As for `C[C@H]1CC[C@]2(C(=O)O[C@@H]3O[C@H](CO)[C@@H](O)[C@H](O)[C@H]3O)CC[C@]3(C)C(=CC[C@@H]4[C@@]5(C)CC[C@H](O[C@@H]6OC[C@@H](O)[C@H](O)[C@H]6O)C(C)(C)[C@@H]5CC[C@]43C)[C@@H]2[C@]1(C)O`, the outcome in the assay on Erythrocyte [1] (Oryctolagus cuniculus) and in the assay with Erythrocyte [2] (Ovis aries) was inactive.

Take `COC(=O)[C@H]1O[C@@H](O[C@H]2CC[C@]3(C)[C@H]4CC=C5[C@@H]6[C@H](O)C(C)(C)CC[C@]6(C(=O)O)CC[C@@]5(C)[C@]4(C)CC[C@H]3C2(C)C)[C@H](O)[C@@H](O)[C@@H]1O`: the result in the assay on Erythrocyte [1] (Oryctolagus cuniculus) and in the assay on Erythrocyte [2] (Ovis aries) was inactive.

`CC1=C2[C@H](O)C[C@]3(C)[C@H]([C@@H]4O[C@@H]4[C@]45OC(=O)[C@@]6(CCC(C)(C)C[C@H]64)CC[C@]53C)[C@@]2(C)C=C(O)C1=O`: the Activity in the assay with Erythrocyte [1] worked out at 0.944 mg/mL; with Erythrocyte [2], 0.38 mg/mL.

With `C[C@H]1CC[C@]2(C(=O)O)CC[C@]3(C)C(=CC[C@@H]4[C@@]5(C)CC[C@H](O)C(C)(C)[C@@H]5CC[C@]43C)[C@@H]2[C@]1(C)O`, the Activity came to 0.579 mg/mL in the assay on Erythrocyte [1] and 0.237 mg/mL with Erythrocyte [2].

As for `COC(=O)[C@H]1O[C@@H](O[C@H]2CC[C@]3(C)[C@H]4CC=C5[C@H]6[C@](C(=O)O)(CC[C@H](C)[C@@]6(C)O)CC[C@@]5(C)[C@]4(C)CC[C@H]3C2(C)C)[C@H](O)[C@@H](O)[C@@H]1O`, the result in the assay with Erythrocyte [1] (Oryctolagus cuniculus) and with Erythrocyte [2] (Ovis aries) was inactive.

On to `C[C@H]1CC[C@]2(C(=O)O[C@@H]3O[C@H](CO)[C@@H](O)[C@H](O)[C@H]3O)CC[C@]3(C)C(=CC[C@@H]4[C@@]5(C)CC[C@H](O[C@@H]6OC[C@H](O)[C@H](O)[C@H]6O)C(C)(C)[C@@H]5CC[C@]43C)[C@@H]2[C@]1(C)O`, for which the outcome with Erythrocyte [1] (Oryctolagus cuniculus) and in the assay with Erythrocyte [2] (Ovis aries) was inactive.

Regarding `C=C1[C@@H](O)[C@H](O)C[C@]2(C)[C@H]3C=C[C@]45OC(=O)[C@@]6(CC[C@@H](C)[C@H](C)[C@H]64)CC[C@@]5(C)[C@]3(C)CC[C@@H]12` [ILEKUDINOL A], the Activity in the assay with Erythrocyte [1] came out at 0.658 mg/mL; with Erythrocyte [2] it was 0.248 mg/mL.

On to `COC(=O)[C@]12CC[C@@H](C)[C@@](C)(O)[C@H]1C1=CC[C@@H]3[C@@]4(C)CC[C@H](O)C(C)(C)[C@@H]4CC[C@@]3(C)[C@]1(COC(=O)/C=C/c1ccc(O)c(OC)c1)CC2`, for which the Activity turned out to be 0.319 mg/mL with Erythrocyte [1] and 0.131 mg/mL in the assay on Erythrocyte [2].

With `C[C@@H]1CC[C@]2(C(=O)O[C@@H]3O[C@H](CO)[C@@H](O)[C@H](O)[C@H]3O)CC[C@]3(C)C(=CC[C@@H]4[C@@]5(C)CC[C@H](O[C@@H]6OC[C@H](O)[C@H](O)[C@H]6O)C(C)(C)[C@@H]5CC[C@]43C)[C@@H]2[C@]1(C)O`, the result with Erythrocyte [1] (Oryctolagus cuniculus) and in the assay with Erythrocyte [2] (Ovis aries) was inactive.

With `C[C@H]1[C@H](C)CC[C@]2(C(=O)O)CC[C@]3(C)C(=CC[C@@H]4[C@@]5(C)CC[C@H](O)C(C)(C)[C@@H]5CC[C@]43C)[C@H]12` [URSOLIC ACID], the results for the Activity in the assay with Erythrocyte [1] and in the assay with Erythrocyte [2] were 0.493 mg/mL and 0.278 mg/mL, respectively.

As for `C=C1CC[C@@]23CC[C@]4(C)[C@@](OC2=O)([C@@H]3[C@H]1C)[C@H]1O[C@H]1[C@@H]1[C@@]2(C)C=C(O)C(=O)C(C)=C2[C@H](O)C[C@]14C`, the Activity is 0.656 mg/mL with Erythrocyte [1] and 0.236 mg/mL in the assay with Erythrocyte [2].

For `C[C@@H]1CC[C@]2(C(=O)O)CC[C@]3(C)C(=CC[C@@H]4[C@@]5(C)CC[C@H](O)[C@@](C)(CO)[C@@H]5CC[C@]43C)[C@@H]2[C@]1(C)O` [ROTUNDIC ACID], the figures for the Activity with Erythrocyte [1] and in the assay on Erythrocyte [2] were 0.341 mg/mL and 0.19 mg/mL, respectively.
